In article PMC6745035, “Novel tetrahydroacridine derivatives with iodobenzoic moieties induce G0/G1 cell cycle arrest and apoptosis in A549 non-small lung cancer and HT-29 colorectal cancer cells” (Molecular and Cellular Biochemistry, 2019):

Assays:
[1] = tested on: 253J B-V and 253J B-V cisplatin-resistant cells
HT-29 cells [2] = assay: Apoptosis assay by annexin-V/PI double staining, HT-29; assay type: cell-based, human; conditions: HT-29, 24 h, compound at IC50 (1i 5.90 µM); control 8.62%
Protocol: Compounds were added to the cells and further incubated for 24 h. After treatment, monolayer and supernatant cells were harvested, washed with PBS and centrifuged (monolayer at 1200 rpm for 10 min, supernatant at 3500 rpm for 10 min). Then, cells were re-suspended in binding buffer and stained with 2 µL of Annexin-V and […] of PI (ANNEXIN-V—FITC Apoptosis Detection Kit, Immunostep) in the dark for 10 min at room temperature. Cells were analysed by BD Accuri C6 Flow Cytometry (Becton–Dickinson). Etoposide (Calbiochem) was used as a reference drug. Experiments were done in triplicates.

γ-H2AX = assay: Western blot of γ-H2AX, HT-29; assay type: cell-based, human; conditions: HT-29, 24 h, IC50 and 1/2IC50
Protocol: Then, cells were treated with chosen compounds. After 24 h of incubation, monolayer and supernatant were harvested and washed in cold PBS. Cells were centrifuged—monolayer at 1200 rpm for 10 min, supernatant 3500 rpm for 10 min. Pellets were dissolved in RIPA Lysis and Extraction buffer (Bio-Rad) containing Phosphatase Inhibitor Cocktail 3 (Sigma Aldrich) and Protease Inhibitor Cocktail (Sigma Aldrich). Samples were incubated in ice for 30 min and mixed every 10 min. Then, samples were centrifuged at 12,000 rpm for 25 min. Protein concentration in supernatants was measured in triplicate using a Protein Assay (Bio-Rad). Proteins were separated by SDS–polyacrylamide gel electrophoresis. Separating and stacking gels were made of different ratios of water, Tris–HCl pH 6.8 and pH 8.8, 10% SDS (Sigma Aldrich), Acrylamide/bis-acrylamide (Sigma Aldrich), 10% APS (Sigma Aldrich), TEMED (Sigma Aldrich). 7.5% gels were prepared for analysis PARP-1, whereas 12% gels prepared for γ-H2AX. After separation on SDS–polyacrylamide gels, proteins were electroblotted on nitrocellulose membrane in Transfer Buffer (Glycine, Tris, Methanol). Membranes were washed in TBS/0.1% or 0.05% Tween20 solution and blocked in Tris-buffered saline with 5% of non-fated dried milk for 1 h. Membranes were then incubated overnight with primary antibodies—anti-PARP-1 (Cell Signaling Technology), anti-γ-H2A.X (Cell Signaling Technology), anti-β-actin (Cell Signaling Technology) in cold room (6 °C). After incubation, membranes well washed with TBS/Tween solution and blocked with and horseradish peroxidase-conjugated secondary antibodies (Bio-Rad) for 1 h in cold room. Protein bands were visualized using ECL™ Prime Western Blotting Detection Reagents (Sigma Aldrich) Healthcare and Carestream Kodak autoradiography GBX fixer/replenisher (Sigma Aldrich) with Developer and Replenisher (Carestream) in the dark room. Results were obtained on Autoradiography Film (Santa Cruz Biotechnology). Densitometric analysis was performed by using a software program (ImageJ). […]

HT-29 cells [3] = assay: Colony forming assay, HT-29
HT-29 cells [4] = assay: Reactive oxygen species assay (DCFH-DA), HT-29; assay type: cell-based, human; conditions: compound at IC50 24 h plus H2O2, H2O2 only 1.88-fold
Protocol: After incubation, compounds were added into the wells and further incubated for next 24 h. H2O2 (1 mM) was added at 22nd h of incubation with compounds. H2O2 was used as a positive control. 30 min before the analysis, DCFH-DA (20 µM) was added to the wells. After incubation, cells were harvested and washed in PBS. Then, cells were centrifuged at 1500 rpm for 10 min. Medium was removed and cells were suspended in PBS. Analysis was performed on BD Accuri C6 Flow Cytometry (Becton–Dickinson).

SH-SY5Y cells = assay: Cytoprotection against rotenone/oligomycin A, co-incubation, MTT; assay type: cell-based, human; conditions: co-incubation with rotenone/oligomycin A, 0.001 µM
Protocol: In the co-incubation assay, compounds and mixture of R/O were incubated together for 24 h. […] It turned out that none of the compounds (apart from 1i at the concentration of 0.001 µM and cytoprotection of 2.99%) had cytoprotective properties in the whole range of concentrations (Fig. 17). Compounds were not able to capture free radicals; therefore they cannot be classified as free-radical scavengers.

A549 cells = assay: Cell cycle analysis (PI, flow cytometry), A549; assay type: cell-based, human; conditions: A549, 24 h, compound at 1/2IC50 (1i 7.44 µM)
Protocol: Then, compounds were added into the wells and cells were further incubated for 24 h. After incubation, monolayer and supernatant cells were harvested and washed in PBS. Then, cells were centrifuged (monolayer—1200 rpm for 10 min, supernatant 3500 rpm for 10 min) and fixed in cold 70% ethanol. Pellets were kept at 4 °C for at least 2 h. Prior to analysis, cells were centrifuged and re-suspended in RNAsi (type 1-A; Sigma Aldrich)—PBS working solution (200 µg/mL). Samples were incubated at 37 °C for 10 min. At the end, 3 µL of 2 mg/mL propidium iodide (PI) (Sigma Aldrich) solution was added to each sample. Samples were kept in the dark prior to analysis. Analysis was performed on BD Accuri C6 Flow Cytometry (Becton–Dickinson). Etoposide (Calbiochem) was used as a reference drug. Experiments were done in triplicates.

Row | Structure (SMILES) | Cytotoxic effect on cisplatin-resistant versus non-resistant 253J B-V cells (in words) [1] | Total apoptotic cells (HT-29 cells [2]) | γ-H2AX protein level / DNA damage (in words) (γ-H2AX) | Number of colonies expressed as percent of control number (HT-29 cells [3]; compound at 1/2IC50) | Number of colonies expressed as percent of control number (HT-29 cells [3]; compound at 2xIC50) | Number of colonies expressed as percent of control number (HT-29 cells [3]; compound at IC50) | Increase in ROS level (DCF fluorescence) in comparison with non-treated control (HT-29 cells [4]) | Cytoprotection (SH-SY5Y cells) | Cells in G2/M phase (A549 cells) | Cells in S phase (A549 cells) | Cells in G0/G1 phase (A549 cells; control 51.74%)
1 | O=C(NCCCNc1c2c(nc3ccccc13)CCCC2)c1ccccc1I [Compound 1b] | resistant cells were more sensitive |  |  |  |  |  |  |  |  |  | 
2 | O=C(NCCCCNc1c2c(nc3ccccc13)CCCC2)c1ccccc1I [Compound 1c] | resistant cells were more sensitive | 12.96% | lowest effect on DNA damage | 10.06% | 0% | 4.38% | 1.83 fold |  |  |  | 
3 | O=C(NCCCCNc1c2c(nc3ccccc13)CCCC2)c1ccc(I)cc1 [Compound 1i] |  | 11.80% | strongest H2AX phosphorylation |  |  |  | 1.85 fold | 2.99% | 11.31% | 12.76% | 75.93%
